How the values were obtained:
Candida albicans = experiment: Antifungal susceptibility disc test (rings of inhibition); format: cell-based; details: disc on Sabouraud plate, 18-24 hrs at 37° C.; polymers 100 μg per disc, Amphotericin B 20 μg; NI = No Inhibition
Method: (§1) Each polymer was applied to sterile filter paper discs as a solution (15 mg of compound in 3 mL of solvent). Each disc received 20 μL of solution, and was allowed to dry, giving a final concentration of 100 μg of compound per disc. Adapted from Messer et al., (2007), this protocol was used to test novel compounds for antifungal properties against yeasts and fungi. Compounds were tested for antifungal activity against pure cultures of Saccharomyces cerevisiae, Candida albicans supplied by Ward's Natural Science Ltd. and Aspergillus niger and Aspergillus fumigatus supplied by […]. (Inverness Medical, Ottawa, Ontario, Canada). All cultures were maintained on Sabouraud agar. […] The cultures of A. niger and A. fumigatus were transferred, using an inoculation loop, to new Sabouraud agar and grown for 48 hrs. at 27° C., and 35° C. respectively, to cause sporulation. Triplicates of all the plates and broth cultures were made in case of error or contamination. Using a sterile swab, and aseptic techniques, the cell suspension of S. cerevisiae, and C. albicans were transferred to Sabouraud agar plates and spread evenly, ensuring that the entire surface was inoculated. They were then left to dry for 10 minutes. From the plates containing A. niger and A. fumigatus two small circles containing fungal growth of the A Niger or A Fumigatus fungi were cut from the agar plates, and using a glass/PTFE tissue homogenizer, were mixed and homogenized with 5 ml of sterile MilliQ water to create a suspension of fungal spores. Using a sterile swab, and aseptic techniques, the spore inocula of A. niger and A. fumigatus were transferred to Sabouraud agar plates and spread evenly, ensuring that the entire surface was inoculated. They were then left to dry for 10 minutes. Amphotericin B (20 μg) premade discs were used as a control. Three antibiotic discs containing different compounds were place equidistant apart on each Sabouraud plate. Each compound had three replicates per species. Plates containing S. cerevisiae, and C. albicans were incubated for 18-24 hrs at 37° C., A. niger for 48 hrs at room temperature, and A. fumigatus for 18-24 hrs at 35° C. […] If clear rings of inhibition were present, the diameter was measured twice using a caliper. Halos indicated partial inhibition of growth (Hicks et al., 2008).

Aspergillus niger = experiment: as above; format: cell-based; details: disc on Sabouraud plate, 48 hrs at room temperature; polymers 100 μg per disc, Amphotericin B 20 μg; NI = No Inhibition
Method: as §1

Saccharomyces cerevisiae = experiment: as above; format: cell-based; details: disc on Sabouraud plate, 18-24 hrs at 37° C.; polymers 100 μg per disc, Amphotericin B 20 μg; NI = No Inhibition
Method: as §1

Aspergillus fumigatus = experiment: as above; format: cell-based; details: disc on Sabouraud plate, 18-24 hrs at 35° C.; polymers 100 μg per disc, Amphotericin B 20 μg; NI = No Inhibition
Method: as §1

Escherichia coli = experiment: Antibacterial susceptibility disc test (rings of inhibition); format: cell-based; parameters: unit not given here; details: NI = No Inhibition; for diameter of ring of inhibition, E. coli (Table 5): all 10 μg; for diameter of ring of inhibition, E. coli: disc on Mueller-Hinton plate, 18-24 hrs at 37° C., polymers 100 μg per disc, control discs at given load
Method: (§2) Compounds were tested for antibacterial activity, as described in Ma et al. (2011), against pure cultures of Escherichia coli, Pseudomonas aeruginosa, Bacillus cereus, Proteus mirabilis/hauseri, and Staphylococcus aureus, supplied by Ward's Natural Science Ltd. (St. Catherines, Ontario, Canada). All cultures were maintained on Tryptic Soy agar. These cultures were then transferred using an inoculation loop to 10 mL of Tryptic soy broth, and grown at 37° C. for 24 hours. Triplicates of plate and broth cultures were made in case of error or contamination. Using a sterile swab, and aseptic techniques, the bacterial broth inocula were transferred to Mueller-Hinton plates and spread evenly, ensuring that the entire surface was inoculated. They were then left to dry for 3-5 minutes. The following control discs were used: Penicillin (10 μg), Tetracycline (30 μg), Chloramphenicol (30 μg), and Ampicillin (10 μg). Four antibiotic discs containing different compounds were placed equidistant from each other on a Mueller-Hinton plate. Each compound had three replicates per species. Plates were incubated for 18-24 hrs at 37° C., and then observed for rings of inhibition. If clear rings of inhibition were present, the diameter was measured twice using a caliper. […] Each polymer was applied to sterile filter paper discs as a solution (15 mg of compound in 3 mL of solvent). Each disc received 20 μL of solution, and was allowed to dry, giving a final concentration of 100 μg of compound per disc.

Bacillus cereus = experiment: as above; format: cell-based; details: disc on Mueller-Hinton plate, 18-24 hrs at 37° C.; polymers 100 μg per disc, control discs at given load; NI = No Inhibition
Method: as §2

Pseudomonas aeruginosa = experiment: as above; format: cell-based; details: disc on Mueller-Hinton plate, 18-24 hrs at 37° C.; polymers 100 μg per disc, control discs at given load; NI = No Inhibition
Method: as §2

Staphylococcus aureus = experiment: as above; format: cell-based; details: disc on Mueller-Hinton plate, 18-24 hrs at 37° C.; polymers 100 μg per disc, control discs at given load; NI = No Inhibition
Method: as §2

[1] = test system: Proteus mirabilis/hauseri; experiment: as above; format: cell-based; details: disc on Mueller-Hinton plate, 18-24 hrs at 37° C.; polymers 100 μg per disc, control discs at given load; NI = No Inhibition
Method: as §2

[2] = Viscosity measurements (Brookfield Synchrolectric viscometer model LVF); format: physicochemical; details: 1% weight solution in distilled water, pH 7 and 25° C.
Method: The values in centi-poise (mPa·s, m=milli) were calculated as per the specifications set out by the instrument manufacturer.
The viscosity of the compositions described in Example 5, were also similarly measured, as well as 1% wt. solutions of pure BAC and hp-AETA.

| Molecule | diameter of ring of inhibition, C. albicans (Candida albicans) | diameter of ring of inhibition, A. niger (Aspergillus niger) | diameter of ring of inhibition, S. cerevisiae (Saccharomyces cerevisiae) | diameter of ring of inhibition, A. fumigatus (Aspergillus fumigatus) | diameter of ring of inhibition, E. coli (Table 5) (Escherichia coli) | diameter of ring of inhibition, E. coli (Escherichia coli) | diameter of ring of inhibition, B. cereus (Bacillus cereus) | diameter of ring of inhibition, P. aeruginosa (Pseudomonas aeruginosa) | diameter of ring of inhibition, S. aureus (Staphylococcus aureus) | diameter of ring of inhibition, P. hauseri [1] | viscosity [2] |
| --- | --- | --- | --- | --- | --- | --- | --- | --- | --- | --- | --- |
| C[C@@H]1[C@H](O)[C@@H](C)/C=C/C=C/C=C/C=C/C=C/C=C/C=C/[C@H](O[C@@H]2O[C@H](C)[C@@H](O)[C@H](N)[C@@H]2O)C[C@@H]2O[C@](O)(C[C@@H](O)C[C@@H](O)[C@H](O)CC[C@@H](O)C[C@@H](O)CC(=O)O[C@H]1C)C[C@H](O)[C@H]2C(=O)O [Amphotericin B] | 13.6 | 15.5 | 8.39 | 12.5 | – | – | – | – | – | – | – |
| CC1(C)S[C@@H]2[C@H](NC(=O)[C@H](N)c3ccccc3)C(=O)N2[C@H]1C(=O)O [Ampicillin] | – | – | – | – | 15.4 | 15.0 | 13.5 | 10.2 | 40.4 | 11 | – |
| O=C(N[C@H](CO)[C@H](O)c1ccc([N+](=O)[O-])cc1)C(Cl)Cl [Chloramphenicol] | – | – | – | – | 17.4 | 19.4 | 26.3 | 21.5 | 24.1 | 14.4 | – |
| CN(C)[C@@H]1C(O)=C(C(N)=O)C(=O)[C@@]2(O)C(O)=C3C(=O)c4c(O)cccc4[C@@](C)(O)[C@H]3C[C@@H]12 [Tetracycline] | – | – | – | – | 25.3 | 20.4 | 20.3 | 9.9 | 24.7 | 13.7 | – |
| Benzalkonium chloride [BAC] | – | – | – | – | – | – | – | – | – | – | 3.1 mPa·s |
| Penicillin | – | – | – | – | 19.5 | 19.5 | – | 7.0 | 43.8 | 19 | – |

From US11497701B2, “Multi-functional anti-microbial polymers and compositions containing same” (priority 2015, dated 2022)
